Laboratory results from the supplement of paper PMC10307832.

Legend:
Test in all cases: relative viability (nuclei count vs DMSO), 5 days (fraction); higher = more cells survive
IPA-3 + AZD7762 = compound: C1=CC=C2C(=C1)C=CC(=C2SSC3=C(C=CC4=CC=CC=C43)O)O [IPA-3] + NC(=O)Nc1cc(-c2cccc(F)c2)sc1C(=O)N[C@H]1CCCNC1 [AZD7762] (partner 0.2 µM)
In short: (§1)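 For relative viability, nuclei counts in treated wells were divided by those in vehicle wells. Lung cancer cell lines had been pin-tool dosed in 1536-well plates the day after seeding and cultured for 5 days, then fixed and stained in one step (final 0.05% Triton X-100, 1% formaldehyde, 1 ug/ml Hoechst) and imaged at 4×. Doses were one drug alone or a fixed anchor-drug dose plus five library-drug doses (not always all listed) in √10 steps, and values are duplicate-plate medians.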

Doramapimod + AZD7762 = compound: Cc1ccc(-n2nc(C(C)(C)C)cc2NC(=O)Nc2ccc(OCCN3CCOCC3)c3ccccc23)cc1 [Doramapimod] + NC(=O)Nc1cc(-c2cccc(F)c2)sc1C(=O)N[C@H]1CCCNC1 [AZD7762] (partner 0.2 µM)
In short: as §1

RAF265 + Olaparib = compound: Cn1c(Nc2ccc(C(F)(F)F)cc2)nc2cc(Oc3ccnc(-c4ncc(C(F)(F)F)[nH]4)c3)ccc21 [RAF265] + O=C(c1cc(Cc2n[nH]c(=O)c3ccccc23)ccc1F)N1CCN(C(=O)C2CC2)CC1 [Olaparib] (partner 8 µM)
In short: as §1

IPA-3 + Dasatinib = compound: C1=CC=C2C(=C1)C=CC(=C2SSC3=C(C=CC4=CC=CC=C43)O)O [IPA-3] + Cc1nc(Nc2ncc(C(=O)Nc3c(C)cccc3Cl)s2)cc(N2CCN(CCO)CC2)n1 [Dasatinib] (partner 0.075 µM)
In short: as §1

Cell Line | relative viability (IPA-3 + AZD7762; first compound 0.2 µM) | relative viability (IPA-3 + AZD7762; first compound 0.6325 µM) | relative viability (IPA-3 + AZD7762; first compound 2 µM) | relative viability (IPA-3 + AZD7762; first compound 6.325 µM) | relative viability (IPA-3 + AZD7762; first compound 20 µM) | relative viability (Doramapimod + AZD7762; first compound 0.02 µM) | relative viability (Doramapimod + AZD7762; first compound 0.06325 µM) | relative viability (Doramapimod + AZD7762; first compound 0.2 µM) | relative viability (Doramapimod + AZD7762; first compound 0.6325 µM) | relative viability (Doramapimod + AZD7762; first compound 2 µM) | relative viability (RAF265 + Olaparib; first compound 0.01 µM) | relative viability (RAF265 + Olaparib; first compound 0.03162 µM) | relative viability (RAF265 + Olaparib; first compound 0.1 µM) | relative viability (RAF265 + Olaparib; first compound 0.3162 µM) | relative viability (RAF265 + Olaparib; first compound 1 µM) | relative viability (IPA-3 + Dasatinib; first compound 0.2 µM) | relative viability (IPA-3 + Dasatinib; first compound 0.6325 µM) | relative viability (IPA-3 + Dasatinib; first compound 2 µM) | relative viability (IPA-3 + Dasatinib; first compound 6.325 µM) | relative viability (IPA-3 + Dasatinib; first compound 20 µM)
RERF-LC-KJ | 1.08 | 0.955 | 1.01 | 0.921 | 1.15 | 0.897 | 1.15 | 0.961 | 0.703 | 0.889 | 0.952 | 0.892 | 0.759 | 0.682 | 0.575 | 0.983 | 0.729 | 0.837 | 0.759 | 0.789
NCI-H441 | 1.32 | 0.972 | 1.33 | 1.21 | 1.22 | 1.07 | 1.28 | 1.21 | 0.98 | 0.961 | 0.555 | 0.512 | 0.539 | 0.445 | 0.394 | 0.796 | 0.295 | 0.486 | 0.502 | 0.438
LCLC-103H | 0.862 | 0.814 | 0.744 | 0.788 | 0.872 | 0.908 | 0.78 | 0.795 | 0.978 | 0.762 | 0.759 | 0.717 | 0.75 | 0.595 | 0.444 | 0.492 | 0.482 | 0.422 | 0.56 | 0.566
HCC-78 | 0.712 | 0.625 | 0.671 | 0.697 | 0.904 | 0.518 | 0.642 | 0.705 | 0.756 | 0.75 | 1 | 0.876 | 1.06 | 0.864 | 0.724 | 0.43 | 0.359 | 0.462 | 0.439 | 0.427
NCI-H1915 | 0.77 | 0.713 | 0.693 | 0.68 | 0.694 | 0.694 | 0.734 | 0.771 | 0.82 | 0.664 | 0.256 | 0.248 | 0.235 | 0.224 | 0.136 | 0.317 | 0.297 | 0.312 | 0.316 | 0.334
